Experimental data from publication PMC9354705, “Characterization of TR‐107, a novel chemical activator of the human mitochondrial protease ClpP” (Pharmacology Research & Perspectives, 2022).
Where two headings read alike, the source gives them in different places.

How the values were obtained:
[1] = test system: MDA‐MB‐231 or SUM159 cells; experiment: Caspase‐3/7 activity assay and PARP cleavage; format: cell-based, human; conditions: for caspase‐3/7 activity: 24 h, 10 μM ONC201, 150 nM TR‐57, 100 nM TR‐107, 100 nM staurosporine; for PARP cleavage: data not shown
Protocol: […]. The samples were collected in lysis buffer (50 mM HEPES [pH: 7.4], 5 mM CHAPS, and 5 mM DTT), and caspase activity was measured by monitoring fluorescence (ex/em: 360/460 nm) using a SpectraMax i3x (Molecular Devices).

[2] = test system: MDA‐MB‐231 and SUM159 cells; experiment: Immunoblotting for mitochondrial proteins; format: cell-based, human; conditions: 100 nM TR‐107, 150 nM TR‐57, or 10 μM ONC201
Protocol: Cell lysates were clarified and immunoblotted as described earlier.[45] Membranes were incubated with primary antibodies (Appendix S1) diluted 1:1000 in 1% fish gelatin (Sigma‐Aldrich, G7041)/TBST overnight at 4°C, removed, washed 3 × 5 min in TBST, and placed in their respective 2° antibodies (1:10 000 dilution in 5% milk/TBST) for 1 h. […] Acquired images were processed/quantified using Image Lab software (BioRad) or Image Studio Lite (LI‐COR).

MDA‐MB‐231 cells = experiment: Cell viability (total cell count, Hoechst stain) in MDA‐MB‐231 cells; format: cell-based, human; conditions: Homo sapiens, MDA-MB-231, 72 h
[3] = cited from earlier work
[4] = Pharmacokinetic analysis in ICR mice; format: in vivo, mouse; conditions: for bioavailability: 10 mg/kg oral vs 2.0 mg/kg i.v., read-out: F% (oral bioavailability)
Protocol: Samples were placed in tubes containing heparin sodium and stored on ice until centrifuged. Blood samples were centrifuged at 6800g for 6 min at 2–8°C within 1 h following sample collection and stored at −80°C. Proteins from plasma sample aliquots (20 μl) were precipitated by the addition of MeOH (400 μl) containing an internal standard (tolbutamide,100 ng/ml), vortexed for 1 min, and centrifuged at 18 000g for 7 min. The supernatant (200 μl) was transferred to 96 well plates for analysis.
Analysis of samples was conducted as follows. […] The PK parameters including Area Under the Curve (AUC[0–∞]) elimination half‐life (t 1/2), maximal plasma concentration (C max), and oral bioavailability (F%) were analyzed by noncompartmental methods.

SUM159 cells = experiment: Cell viability (total cell count, Hoechst stain) in SUM159 cells; format: cell-based; conditions: Homo sapiens, WT cells, 72 h, mean N = 3
Protocol: Human TNBC cell line SUM159 was a generous gift from Dr. Gary Johnson (the University of North Carolina at Chapel Hill). MDA‐MB‐231 (WT and CLPP‐KO) cells were provided by Dr. Stanley Lipkowitz (National Cancer Institute). MDA‐MB‐231 cells were cultured in RPMI‐1640 media (Gibco, 11875‐093) supplemented with 10% fetal bovine serum (FBS; VWR‐Seradigm, 97068‐085), and 1% antibiotic–antimycotic (anti/anti; ThermoFisher Scientific, 15240062). SUM159 cells were cultured in Dulbecco's modified Eagle's medium: Nutrient Mixture F‐12 (DMEM/F12; Gibco, 11330‐032) supplemented with 5% FBS, 5 μg/ml insulin (Gibco, 12585014), 1 μg/ml hydrocortisone, and 1% anti/anti. Cells were maintained at 5% CO2 and 37°C and periodically tested for mycoplasma.
Total cell counting assays were performed by seeding MDA‐MB‐231 cells (WT and ClpP‐KO; 4000 cells/well) or SUM159 (WT and ClpP‐KO; 1000 cells/well) in a 96‐well plate (Perkin Elmer, 6005050) and allowed to adhere overnight. The growth medium was then aspirated and replaced with 100 μl of growth medium supplemented with the drug at concentrations indicated in the figure or figure legends. Cells treated with vehicle control (0.1% DMSO, Sigma‐Aldrich D2650) were used as a negative control in all experiments, and cells were incubated with drug‐containing media for 24, 48, or 72 h as indicated in figure legends. Media was then aspirated and replaced with 100 μl Dulbecco's phosphate‐buffered saline (DPBS Gibco, 14190‐144) containing 1 μg/ml Hoechst stain (ThermoFischer Scientific, H3570) and allowed to incubate at 37°C for 30 min. The total cell number was then quantified using the Celigo Imaging Cytometer (Nexcelom).

[5] = biological target: purified recombinant human ClpP (Homo sapiens, UniProt Q16740); experiment: In vitro ClpP activity assay (casein‐FITC degradation); format: biochemical; conditions: relative to DMSO, read-out: EC50 (nM) ClpP activation
Chain of purified recombinant human ClpP (Q16740 57-277): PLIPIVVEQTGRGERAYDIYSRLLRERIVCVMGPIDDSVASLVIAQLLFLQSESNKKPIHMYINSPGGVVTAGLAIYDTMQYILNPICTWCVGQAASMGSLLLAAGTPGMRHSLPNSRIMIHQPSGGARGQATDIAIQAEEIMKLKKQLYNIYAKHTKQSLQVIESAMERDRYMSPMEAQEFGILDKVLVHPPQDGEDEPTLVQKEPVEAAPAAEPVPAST
Protocol: Measurement of in vitro activity of purified recombinant human ClpP was performed with a slight modification to the method previously described.[46] Briefly, ClpP activity was measured through the degradation of casein‐FITC (Sigma‐Aldrich, C0528) in the presence of indicated compounds. […] Enzyme and compounds were mixed and incubated in assay buffer for 30 min before adding casein‐FITC substrate. […] Linear slope of fluorescence signal was used to measure ClpP activity and normalized to DMSO control, expressed as RFU/h.

C3(1)‐Tag cells = experiment: Cell viability assay of C3Tag cells; format: cell-based, murine; conditions: Mus musculus; 72 h, Hoechst stain, N = 2
[6] = male, mouse, plasma, iv, ICR mice, 2.0 mg/kg i.v.
[7] = male, mouse, plasma, iv, ICR mice, 2.0 mg/kg i.v., read-out: C max
[8] = male, mouse, plasma, iv, ICR mice, 2.0 mg/kg i.v., read-out: T 1/2 (converted)
[9] = male, mouse, plasma, ICR mice, 10 mg/kg oral, read-out: C max
[10] = male, mouse, plasma, ICR mice, 10 mg/kg oral, read-out: T 1/2 (converted)
[11] = WT cells, Hoechst stain, mean N = 3, read-out: IC50 (nM) MDA-MB-231
[12] = male, mouse, plasma, iv, ICR mice, 2.0 mg/kg i.v., read-out: C max (mg/ml)
[13] = male, mouse, plasma, ICR mice, 10 mg/kg oral
[14] = male, mouse, plasma, ICR mice, 10 mg/kg oral, read-out: C max (mg/ml)

| Structure (SMILES) | AUC(0-inf) [4, 6] [ng·h/mL] | Cmax [4, 7] [nM] | half-life [4, 8] [h] | bioavailability ([4]; male, mouse, plasma, ICR mice) [%] | Cmax [4, 9] [nM] | half-life [4, 10] [h] | IC50 (MDA‐MB‐231 cells; [11]) [nM] | IC50 (SUM159 cells) [nM] | EC50 [5] [nM] | Cmax [4, 12] [ng/mL] | Cmax [4, 14] [ng/mL] | also measured |
| --- | --- | --- | --- | --- | --- | --- | --- | --- | --- | --- | --- | --- |
| Cc1ccccc1CN1C(=O)C2=C(CCN(Cc3ccccc3)C2)N2CCN=C12 [ONC201, reference compound] | 50.7 | 310 | 0.26 | 1.2 | 23 | 0.31 | – | – | – | – | – | caspase‐3/7 activity [1]: no increase; PARP cleavage [1]: no increase; TUFM and TFAM protein levels by 24 h [2]: complete or near‐complete loss; time at which TUFM and TFAM protein levels began to decline [2]: ~ 6 h; IC50 (MDA‐MB‐231 cells; media containing galactose, read-out: IC50 (nM) Galactose): 350 nM; IC50 (MDA‐MB‐231 cells; media containing glucose, read-out: IC50 [glucose]): 1700 nM; reported t 1/2 ([3]; in mice, higher doses): 6.4 h; increase in exposure (AUC) vs 10 mg/kg oral ([4]; 25 mg/kg oral): 46 X; AUC (0–∞) ([4]; ICR mice, 10 mg/kg oral): 3.13 ng·h/mL; Cmax ([4]; male, mouse, in vivo, iv, ICR mice, 2.0 mg/kg i.v., read-out: C max (mg/ml)): 122 ng/mL; Cmax ([4]; male, mouse, in vivo, ICR mice, 10 mg/kg oral, read-out: C max (mg/ml)): 8.99 ng/mL; Cmax ([4]; male, mouse, in vivo, ICR mice, 25 mg/kg oral, blood collection 0.083–4 h, read-out: C max (mg/ml)): 195 ng/mL; AUC(0-inf) ([4]; male, mouse, plasma, ICR mice, 25 mg/kg oral, blood collection 0.083–4 h): 145 ng·h/mL; Cmax ([4]; male, mouse, plasma, ICR mice, 25 mg/kg oral, blood collection 0.083–4 h, read-out: C max): 500 nM; half-life ([4]; male, mouse, plasma, ICR mice, i.v. 2 mg/kg and oral 10 mg/kg arms, read-out: t 1/2 (range over study arms)): 0.26 to 0.31 h |
| O=C1C2=C(CCN(Cc3ccccc3)C2)N2CCN=C2N1Cc1ccc(F)cc1F [ONC206, reference compound] | – | – | – | – | – | – | 260 | 180 | 830 | – | – | – |
| O=C1C2=C(CCN(Cc3ccccc3)C2)N2CCN=C2N1Cc1ccc(C(F)(F)F)cc1 [ONC212/TR‐31, reference compound] | 638 | 2200 | 1.68 | 14 | 640 | 1.49 | 80 | 27 | 310 | 950 | 282 | reported t 1/2 ([3]; oral dose of 125 mg/kg): 4.3 h; AUC(0-inf) [4, 13]: 449 ng·h/mL |
| CC(=O)O[C@H]1C(=O)[C@@]2(C)[C@H]([C@H](OC(=O)c3ccccc3)[C@]3(O)C[C@H](OC(=O)[C@H](O)[C@@H](NC(=O)c4ccccc4)c4ccccc4)C(C)=C1C3(C)C)[C@]1(OC(C)=O)CO[C@@H]1C[C@@H]2O [Paclitaxel, paclitaxel, reference compound] | – | – | – | – | – | – | – | – | – | – | – | IC50 (C3(1)‐Tag cells): 14 nM |
| CN[C@@H]1C[C@H]2O[C@@](C)([C@@H]1OC)n1c3ccccc3c3c4c(c5c6ccccc6n2c5c31)C(=O)NC4 [Staurosporine, staurosporine, reference compound] | – | – | – | – | – | – | – | – | – | – | – | caspase‐3/7 activity [1]: strong increase |
| C#Cc1cccc(CN2CCC3=C(C2)C(=O)N(Cc2ccc(Cl)cc2)C2=NCCN23)c1 [TR‐27] | 155 | 350 | 1.06 | 33 | 290 | 1.16 | – | – | – | 154 | 127 | – |
| Cn1c2c(c(=O)n(Cc3ccc(Cl)cc3)c1=O)CN(Cc1cccc(C#N)c1)CC2 [TR‐57] | 886 | 3000 | 1.52 | 61 | 4100 | 1.4 | – | – | – | 1240 | 1710 | caspase‐3/7 activity [1]: no increase; PARP cleavage [1]: no increase; TUFM and TFAM protein levels by 24 h [2]: complete or near‐complete loss; time at which TUFM and TFAM protein levels began to decline [2]: ~ 6 h; AUC ([4]; male, mouse, plasma, po, ICR mice, 10 mg/kg orally, read-out: exposure (AUC)): 2710 ng·h/mL; AUC(0-inf) [4, 13]: 2710 ng·h/mL |
| N#Cc1cccc(CN2CCC3=C(C2)C(=O)N(Cc2ccc(Cl)cc2)C2=NCCN23)c1 [TR‐65] | 351 | 1500 | 0.73 | 33 | 670 | 0.95 | – | – | – | 636 | 294 | AUC(0-inf) [4, 13]: 584 ng·h/mL |
| Cc1nc2c(c(=O)n1Cc1ccc(Cl)cc1)CN(Cc1cccc(C#N)c1)CC2 [TR‐97] | – | – | – | – | – | – | 104 | 53 | 340 | – | – | – |
| N#Cc1cccc(CN2CCC3=C(C2)C(=O)N(Cc2ccc(C(F)(F)F)cc2)C2=NCCCN23)c1 [TR‐98] | – | – | – | – | – | – | 21 | 24 | 310 | – | – | – |
| N#Cc1cccc(CN2CCC3=C(C2)C(=O)N(Cc2ccc(Cl)cc2)C2=NCC(F)(F)CN23)c1 [TR‐106] | – | – | – | – | – | – | 430 | 120 | 1100 | – | – | – |
| N#Cc1cccc(CC2CCC3=C(C2)C(=O)N(Cc2ccc(C(F)(F)F)cc2)C2=NCCN23)c1 (stereo not shown) [TR‐109] | – | – | – | – | – | – | 2200 | 4600 | 670 | – | – | – |
| N#Cc1cccc(CC2CCC3=C(C2)C(=O)N(Cc2ccc(Cl)cc2)C2=NCCN23)c1 (stereo not shown) [TR‐122] | – | – | – | – | – | – | 2600 | 3500 | 1100 | – | – | – |
